# Data taken from patent US20040097463A1, “Use of asiatic acid or asiaticoside for treatment of cancer” (priority 2000, published 2004).
# Where two headings read alike, the source gives them in different places.
# Key:
# HeLa cells = test: Apoptosis by DAPI staining of the nuclei in HeLa cells; assay type: cell-based; conditions: cytotoxic concentrations
# Description: HeLa cells were treated with asiatic acid at cytotoxic concentrations and apoptosis of the cells was measured by DAPI staining of the nuclei (2).
# [1] = MTT dye reduction cytotoxicity test, new born foreskin fibroblast cells; assay type: cell-based, human; conditions: human
# Description: (§1) Taxol is a commercially available chemotherapeutic predominantly used in the treatment of breast cancer, lung cancer and ovarian cancer. The experiments were performed on human foreskin fibroblast cells as well as established tumor cell lines. The percentage cytotoxicity was measured by the MTT dye reduction test, which requires the NADPH dehydrogenase enzyme of the mitochondria in live cells (1).
# [2] = test system: New Born Foreskin Fibroblast cells; test: as above; assay type: cell-based, human
# Description: as §1
# [3] = test system: Squamous carcinoma cells of SCC4; test: MTT dye reduction cytotoxicity test, SCC4; assay type: cell-based; conditions: Homo sapiens
# Description: as §1
# [4] = MTT dye reduction cytotoxicity test, OKF6; assay type: cell-based; conditions: human
# Description: as §1
# [5] = test system: Squamous carcinoma cells of SCC15; test: MTT dye reduction cytotoxicity test, SCC15; assay type: cell-based; conditions: for cytotoxicity at 2.5 µg/mL / cytotoxicity at 5 µg/mL / cytotoxicity at 10 µg/mL / cytotoxicity at 20 µg/mL / cytotoxicity at 25 µg/mL: Homo sapiens
# Description: as §1
# [6] = test system: SK-BR3 breast cancer cell line; test: MTT dye reduction cytotoxicity test, SK-BR3; assay type: cell-based; conditions: Homo sapiens
# Description: as §1
# [7] = MTT dye reduction cytotoxicity test, OKF6; assay type: cell-based; conditions: human, OKF6 cells (SV40-transformed normal epithelial cell line)
smiles,measurement,setting,value
"C[C@H]1[C@H](C)CC[C@]2(C(=O)O)CC[C@]3(C)C(=CC[C@@H]4[C@@]5(C)C[C@@H](O)[C@H](O)[C@@](C)(CO)[C@@H]5CC[C@]43C)[C@H]12 [Asiatic Acid, asiatic acid]",apoptosis of the cells measured by DAPI staining of the nuclei,HeLa cells,inducing apoptotic cell death
same,cytotoxicity at 0.8 μg/ml,[1],30%
same,cytotoxicity at 6.25 μg/ml,[1],30%
same,cytotoxicity at 12.5 μg/ml,[1],80%
same,cytotoxicity at 25 μg/ml,[1],84%
same,cytotoxic effect on human foreskin fibroblast cells in culture,[2],dose-dependent
same,cytotoxicity at 5 µg/mL,"[3]; SCC-4, read-out: % cytotox",75%
same,cytotoxicity at 10 µg/mL,"[3]; SCC-4, read-out: % cytotox",75%
same,cytotoxicity at 20 µg/mL,"[3]; SCC-4, read-out: % cytotox",80%
same,cytotoxicity at 40 µg/mL,"[3]; SCC-4, read-out: % cytotox",70%
same,cytotoxicity at 50 µg/mL,"[3]; SCC-4, read-out: % cytotox",75%
same,cytotoxicity at 2.5 μg/ml,[4],5%
same,cytotoxicity at 5 μg/ml,[4],23%
same,cytotoxicity at 10 μg/ml,[4],88%
same,cytotoxicity at 20 μg/ml,[4],92%
same,cytotoxicity at 25 μg/ml,[4],92%
same,cytotoxicity to squamous carcinoma cells compared with solid tumor cell line,[5],more potent cytotoxicity
same,cytotoxicity at 2.5 µg/mL,"[5]; SCC-15, read-out: % cytotox",16%
same,cytotoxicity at 5 µg/mL,"[5]; SCC-15, read-out: % cytotox",20%
same,cytotoxicity at 10 µg/mL,"[5]; SCC-15, read-out: % cytotox",88%
same,cytotoxicity at 20 µg/mL,"[5]; SCC-15, read-out: % cytotox",86%
same,cytotoxicity at 25 µg/mL,"[5]; SCC-15, read-out: % cytotox",90%
same,cytotoxicity at 0.8 µg/mL,"[6]; SK-BR-3, read-out: % cytotox",0%
same,cytotoxicity at 6.2 µg/mL,"[6]; SK-BR-3, read-out: % cytotox",0%
same,cytotoxicity at 12.5 µg/mL,"[6]; SK-BR-3, read-out: % cytotox",23%
same,cytotoxicity at 25 µg/mL,"[6]; SK-BR-3, read-out: % cytotox",80%
"CC(=O)O[C@H]1C(=O)[C@@]2(C)[C@H]([C@H](OC(=O)c3ccccc3)[C@]3(O)C[C@H](OC(=O)[C@H](O)[C@@H](NC(=O)c4ccccc4)c4ccccc4)C(C)=C1C3(C)C)[C@]1(OC(C)=O)CO[C@@H]1C[C@@H]2O [Taxol, reference compound]",cytotoxicity at 0.8 μg/ml,"[1]; New Born Foreskin Fibroblast cells, 0.8 μg/ml, read-out: % cytotox",40%
same,cytotoxicity at 6.25 μg/ml,"[1]; New Born Foreskin Fibroblast cells, 6.25 μg/ml, read-out: % cytotox",40%
same,cytotoxicity at 12.5 μg/ml,"[1]; New Born Foreskin Fibroblast cells, 12.5 μg/ml, read-out: % cytotox",50%
same,cytotoxicity at 25 μg/ml,"[1]; New Born Foreskin Fibroblast cells, 25 μg/ml, read-out: % cytotox",55%
same,cytotoxicity at 5 µg/mL,"[3]; SCC-4, SCC4, 5 μg/ml, read-out: % cytotox",52%
same,cytotoxicity at 10 µg/mL,"[3]; SCC-4, SCC4, 10 μg/ml, read-out: % cytotox",60%
same,cytotoxicity at 20 µg/mL,"[3]; SCC-4, SCC4, 20 μg/ml, read-out: % cytotox",60%
same,cytotoxicity at 40 µg/mL,"[3]; SCC-4, SCC4, 40 μg/ml, read-out: % cytotox",60%
same,cytotoxicity at 50 µg/mL,"[3]; SCC-4, SCC4, 50 μg/ml, read-out: % cytotox",40%
same,cytotoxicity at 2.5 μg/ml,"[7]; OKF6, 2.5 μg/ml",26%
same,cytotoxicity at 5 μg/ml,"[7]; OKF6, 5 μg/ml",41%
same,cytotoxicity at 10 μg/ml,"[7]; OKF6, 10 μg/ml",54%
same,cytotoxicity at 20 μg/ml,"[7]; OKF6, 20 μg/ml",48%
same,cytotoxicity at 25 μg/ml,"[7]; OKF6, 25 μg/ml",75%
same,cytotoxicity at 2.5 µg/mL,"[5]; SCC-15, SCC15, 2.5 μg/ml, read-out: % cytotox",3%
same,cytotoxicity at 5 µg/mL,"[5]; SCC-15, SCC15, 5 μg/ml, read-out: % cytotox",0%
same,cytotoxicity at 10 µg/mL,"[5]; SCC-15, SCC15, 10 μg/ml, read-out: % cytotox",0%
same,cytotoxicity at 20 µg/mL,"[5]; SCC-15, SCC15, 20 μg/ml, read-out: % cytotox",8%
same,cytotoxicity at 25 µg/mL,"[5]; SCC-15, SCC15, 25 μg/ml, read-out: % cytotox",23%
same,cytotoxicity at 0.8 µg/mL,"[6]; SK-BR-3, SK-BR3, 0.8 μg/ml, read-out: % cytotox",40%
same,cytotoxicity at 6.2 µg/mL,"[6]; SK-BR-3, SK-BR3, 6.2 μg/ml, read-out: % cytotox",50%
same,cytotoxicity at 12.5 µg/mL,"[6]; SK-BR-3, SK-BR3, 12.5 μg/ml, read-out: % cytotox",40%
same,cytotoxicity at 25 µg/mL,"[6]; SK-BR-3, SK-BR3, 25 μg/ml, read-out: % cytotox",50%
